Laboratory results from publication PMC10537087, “Evaluating Known Zika Virus NS2B-NS3 Protease Inhibitor Scaffolds via In Silico Screening and Biochemical Assays” (Pharmaceuticals, 2023).
Like-named read-outs stand apart in the source and are kept apart here.

Tests used:
[1] = biological target: T1, ZIKV NS2B-NS3pro (Zika virus, UniProt A0A024B7W1, C1582S/C1645S/R1467A/R1531G); test: ZIKV NS2B-NS3pro inhibitory assay with fluorogenic substrate Bz-Nle-Lys-Lys-Arg-AMC; format: biochemical; settings: for % ZIKV NS2B/NS3pro Inhibition [Enzyme] = 0.2 nM / % ZIKV NS2B/NS3pro Inhibition [Enzyme] = 2 nM: CHAPS 1 mM; for % ZIKV NS2B/NS3pro Inhibition (100 µM) 0.001% Triton: 0.001% Triton X-100, no Tween-20; for % ZIKV NS2B/NS3pro Inhibition (100 µM) 0.01% Triton: 0.01% Triton X-100, no Tween-20; for % ZIKV NS2B/NS3pro Inhibition (100 µM) BSA: 10 min pre-incubation with BSA 1 mg/mL before enzyme; for % ZIKV NS2B/NS3pro Inhibition (100 µM) Without Preincubation: no preincubation; for Hill Slope Replica 1 / Hill Slope Replica 2: from dose-response curve
[2] = Cytotoxicity MTT assay (CC50); settings: African green monkey, Vero (ATCC CCL-81) cells
Description: (§1) The Vero (ATCC® CCL-81™) cell line was used for the cytotoxicity assays and antiviral activity evaluation against ZIKV. Cells were cultured in Eagle’s minimum essential media (MEM) (Cultilab, Campinas, Brazil). The media was supplemented with 5% fetal bovine serum (FBS) (Cultilab, Brazil), in addition to 100 IU/mL penicillin (Cellofarm, Rio De Janeiro, Brazil), 100 μg/mL streptomycin (Merck, Darmstadt, Germany), and 0.25 μg/mL amphotericin B (Cultilab, Brazil).
(§2) Cells were seeded in 96-well microplates (4.0 × 10^4 cells per well) and incubated at 37 °C and 5% CO2 for 24 h. Then, 200 µL of MEM with 1% FBS containing a serial dilution of the compounds (100 to 12.5 µM) was added. As vehicle control, a serial dilution of DMSO was used. After 72 h of incubation under the same conditions, 100 μL of 3-(4,5-dimethylthiazol-2-yl)-2,5-diphenyltetrazolium bromide (MTT; ThermoFischer Scientific, Waltham, MA, USA) [76] diluted in MEM (0.5 mg/mL) was added to each well and incubated for 3 h. The media was removed, and 100 μL of DMSO was added to each well to solubilize formazan crystals and shaken for 20 min. The absorbance was read at 570 nm using a spectrophotometer (VersaMax, Molecular Devices, San Jose, CA, USA). The percentages of inhibition of cell viability were calculated as the ratio between the absorbance of the compound-treated cells and cells with only the vehicle. […] Linear regression (LR) was used for the analysis, considering results with r^2 > 0.9. All conditions were tested in triplicate and one independent assay (n = 3 data points).

[3] = tested on: Vero (ATCC CCL-81) cell line; test: Cytotoxicity MTT assay (CC50); settings: Vero cells
Description: as §1, §2

[4] = biological target: T1, ZIKV NS2B-NS3pro; settings: cited from earlier work; for cause of inhibition after resynthesis: parallel study, ref [54]; for mode of inhibition: ref [33]
[5] = biological target: cruzain (Trypanosoma cruzi, UniProt P25779); test: Cruzain counter-screening enzyme assay (Z-Phe-Arg-AMC); format: biochemical; settings: 10 min preincubation, pH 5.5
cruzain, sequence (P25779 123-467): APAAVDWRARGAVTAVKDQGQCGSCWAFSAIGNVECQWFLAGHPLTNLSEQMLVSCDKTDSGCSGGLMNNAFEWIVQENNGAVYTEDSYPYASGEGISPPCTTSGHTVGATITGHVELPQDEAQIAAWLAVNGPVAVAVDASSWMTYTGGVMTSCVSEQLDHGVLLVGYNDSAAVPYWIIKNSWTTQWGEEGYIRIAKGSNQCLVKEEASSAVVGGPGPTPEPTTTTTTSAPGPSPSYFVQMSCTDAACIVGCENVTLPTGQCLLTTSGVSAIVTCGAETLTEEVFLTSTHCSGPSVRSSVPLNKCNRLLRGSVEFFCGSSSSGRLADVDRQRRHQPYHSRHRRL
Description: Cruzain activity was measured by monitoring the fluorescence signal obtained by cleavage of the fluorogenic substrate Z-Phe-Arg-AMC, following a well-established protocol. The fluorescence intensity (excitation λ: 340 nm; emission λ: 440 nm) was monitored for at least 5 min. All assays were performed in sodium acetate 0.1 M at pH 5.5 and β-mercaptoethanol 10 mM. The final protein concentration was 0.1 nM, and the substrate concentration was 2.5 µM. Each condition was tested in triplicate and two independent assays (n = 6 data points), with preincubation of the enzyme for 10 min at 25 °C. Assays were performed at compound concentrations near the IC50 value against ZIKV NS2B-NS3pro.

[6] = compound 25 µM (close to IC50), enzyme 0.2 nM
[7] = compound 100 µM, 10 min preincubation
[8] = compound 100 µM, 10 min preincubation with enzyme, 0.005% Tween-20, enzyme 0.2 nM
[9] = compound 100 µM, 0.005% Tween-20
[10] = compound 10 µM (close to IC50), enzyme 0.2 nM

Structure (SMILES) | % ZIKV NS2B/NS3pro Inhibition [Enzyme] = 0.2 nM [1, 6] [%] | % ZIKV NS2B/NS3pro Inhibition [Enzyme] = 2 nM ([1]; compound 25 µM (close to IC50)) [%] | % ZIKV NS2B/NS3pro Inhibition (100 µM) 0.001% Triton [1, 7] [%] | % ZIKV NS2B/NS3pro Inhibition (100 µM) 0.01% Triton [1, 7] [%] | % ZIKV NS2B/NS3pro Inhibition (100 µM) BSA ([1]; compound 100 µM) [%] | % ZIKV NS2B/NS3pro Inhibition (100 µM) With Preincubation [1, 8] [%] | % ZIKV NS2B/NS3pro Inhibition (100 µM) Without Preincubation [1, 9] [%] | Hill Slope Replica 1 [1] | Hill Slope Replica 2 [1] | CC50 at 72 h [2] [µM] | Cell viability as percentage of cell control (mean absorbance / CELL) ([3]; compound 12.5 µM) | Cell viability as percentage of cell control (mean absorbance / CELL) ([3]; compound 25 µM) | Cell viability as percentage of cell control (mean absorbance / CELL) ([3]; compound 50 µM) | Cell viability as percentage of cell control (mean absorbance / CELL) ([3]; compound 100 µM) | inhibition at 25 µM ([5]; compound 25 µM) [%] | other results
Cc1ccc(S(=O)(=O)Nc2ccccc2C(=O)Nc2nc3ccccc3[nH]2)cc1 [Compound 7] | 87 ± 0.04 | 27 ± 6 | 88 ± 5 | 12 ± 17 | 89 ± 7 | 100 ± 0 | 90 ± 8 | 2.014 | 1.056 | 32.8 ± 1.55 | 64.4267 | 53.8262 | 38.9416 | 40.3696 |  | 
COc1ccc(Cl)c2sc(NC(=O)c3ccccc3NS(=O)(=O)c3ccc(C)cc3)nc12 [LEE-3] |  |  |  |  |  |  |  |  |  |  |  |  |  |  |  | cause of inhibition after resynthesis [4]: due to colloidal aggregation; mode of inhibition [4]: competitive inhibitors
COc1ccc(S(=O)(=O)Nc2ccccc2C(=O)Nc2nc3ccccc3s2)cc1 [LEE-2] |  |  |  |  |  |  |  |  |  |  |  |  |  |  |  | cause of inhibition after resynthesis [4]: due to colloidal aggregation; mode of inhibition [4]: competitive inhibitors
COc1cccc2sc(NC(=O)c3ccccc3CS(=O)(=O)c3ccccc3)nc12 [Compound 8] |  |  |  |  |  |  |  |  |  | 23.6 ± 1 | 57.338 | 54.3981 | 21.2269 | 17.0602 |  | % ZIKV NS2B/NS3pro Inhibition (100 µM) Without Preincubation ([1]; compound at 10 µM (footnote a), 0.005% Tween-20): 15 ± 11%; % ZIKV NS2B/NS3pro Inhibition (100 µM) With Preincubation ([1]; compound at 10 µM (footnote a, solubility limit), 10 min preincubation, 0.005% Tween-20, enzyme 0.2 nM): 8 ± 8%
O=C(Nc1nc2cnccc2[nH]1)c1ccccc1NS(=O)(=O)c1ccc(Cl)cc1 [Compound 4] | 44 ± 0.2 | 29 ± 8 | 93 ± 8 | 25 ± 15 | 45 ± 4 | 100 ± 0 | 100 ± 0 | 0.8047 | 0.5347 | 57.1 ± 1.86 | 84.584 | 66.5687 | 49.8167 | 25.183 | -12 ± 9.1 | % Cruzain Inhibition ([5]; compound 25 µM): no inhibitory activity
COc1cccc2nc(C(=O)c3ccccc3NS(=O)(=O)c3ccc(F)c(C)c3)[nH]c12 [Compound 12] |  |  | 90 ± 5 | 5 ± 7 | 87 ± 18 | 100 ± 0 | 91 ± 9 | 1.517 | 1.742 | < 12.5 | 28.1944 | 14.2593 | 9.861 | 10 |  | IC50 ([1]; 0.005% Tween-20, enzyme 0.2 nM, substrate 44 µM, read-out: ZIKV NS2B/NS3pro IC50): 5 ± 1 µM; % ZIKV NS2B/NS3pro Inhibition [Enzyme] = 0.2 nM [1, 10]: 94 ± 0.06%; % ZIKV NS2B/NS3pro Inhibition [Enzyme] = 2 nM ([1]; compound 10 µM (close to IC50)): 30 ± 10%; IC50 ([1]; one value per independent assay (two curves per compound), read-out: IC50 of the individual curves for NS2B-NS3pro inhibitors (Figure 3)): 6 µM
O=C(Nc1nc2cccnc2[nH]1)c1ccccc1NS(=O)(=O)c1ccc(F)cc1 [Compound 2] | 30 ± 0.1 | 28 ± 7 | 94 ± 7 | 30 ± 19 | 32 ± 2 | 100 ± 0 | 100 ± 0 | 0.731 | 4.089 | 32.5 ± 1.95 | 77.4987 | 53.4692 | 30.8677 | 25.9519 | 42 ± 11 | 
O=C(Nc1nc2cccnc2[nH]1)c1ccccc1NS(=O)(=O)c1ccc(Cl)cc1 [Compound 1] | 45 ± 0.1 | 26 ± 7 | 93 ± 8 | 47 ± 34 | 69 ± 6 | 100 ± 0 | 100 ± 0 | 3.046 | 1.585 | 22 ± 0.79 | 61.7079 |  | 24.3591 | 20.1848 | 97 ± 7 | 
O=C(Nc1nc2cccc(Cl)c2[nH]1)c1ccccc1NS(=O)(=O)c1ccc(F)cc1 [Compound 5] |  |  | 93 ± 3 | 6 ± 8 | 94 ± 8 | 100 ± 0 | 100 ± 0 | 3.333 | 1.731 | < 12.5 | 44.8735 | 19.4433 | 14.9121 | 15.1318 |  | % ZIKV NS2B/NS3pro Inhibition [Enzyme] = 0.2 nM [1, 10]: 62 ± 0.1%; % ZIKV NS2B/NS3pro Inhibition [Enzyme] = 2 nM ([1]; compound 10 µM (close to IC50)): 23 ± 8%; inhibition at 10 µM ([5]; compound 10 µM): 69 ± 24%
O=C(Nc1nc2cnccc2[nH]1)c1ccccc1NS(=O)(=O)c1ccc(F)cc1 [Compound 3] |  |  |  |  |  |  | 56 ± 11 |  |  | 120 ± 3.68 | 86.7535 | 77.5537 | 72.6654 | 56.6548 |  | 
